B1: wheat bran phytase: phytase purified from wheat bran according to the invention (SEQ ID NO: 7) (protein, listed as Triticum aestivum)
chain: MWMWRGSLPLLLLAAAVAAAAEPASTLEGPSRPVTVPLREDRGHAVDLPDTDPRVQRRVTGWAPEQIAVALSAAPTSAWVSWITGDFQMGGAVKPLDPGTVGSVVRYGLAADSLVREATGDALVYSQLYPFEGLQNYTSGIIHHVRLQGLEPGTKYYYQCGDPAIPGAMSAVHAFRTMPAVGPRSYPGRIAVVGDLGLTYNTTSTVDHMASNRPDLVLLVGDVCYANMYLTNGTGADCYSCAFGKSTPIHETYQPRWDYWGRYMEAVTSGTPMMVVEGNHEIEEQIGNKTFAAYRSRFAFPSTESGSFSPFYYSFDAGGIHFLMLGAYADYGRSGEQYRWLEKDLAKVDRSVTPWLVAGWHAPWYTTYKAHYREVECMRVAMEELLYSHGLDIAFTGHVHAYERSNRVFNYTLDPCGAVHISVGDGGNREKMATTHADEPGHCPDPRPKPNAFIGGFCAFNFTSGPAAGRFCWDRQPDYSAYRESSFGHGILEVKNETHALWRWHRNQDMYGSAGDEIYIVREPHRCLHKHNWTRPAHGP

Legend:
[1] = test system: phytase activity of fraction F1; details: fraction F1, pH optimum 5.6; cited from earlier work
soybean phytase = details: cited from earlier work
[2] = test system: earlier described phytase activity (wheat bran); details: activity with optimum at about pH 5.0; cited from earlier work
[3] = Determination of the isoelectric point (non-denaturing isoelectric focusing); format: physicochemical; details: visualised with 1-naphtylphosphate and Farst Garnet GBC
Procedure: FIG. 5: depicts the isoelectric focusing of the purified wheat bran phytase. A double band at pH 7.4 is visible after incubation with 1-naphtylphosphate and Farst Garnet GBC.
Proteins were focused at 11° C. for a total of 2.5 kVh in non-denaturing isoelectric-focusing polyacrylamid gels (IEF)(Ampholine PAGplate pH 3.5–9.5 (Pharmacia)). An IEF calibration kit (Pharmacia) was applied to determine the pH-gradient across the gel. The IEF markers were visualised by Coomassie staining according to the recommendations of the manufacturer. The presence of acid phosphatase was identified by incubation of the gel at 37° C. in 100 ml 0.05M citrate, pH 4.5 with 50 mg Na-1-naphtyl phosphate (Merck 6815), 25 mg Farst Garnet GBC (Sigma F-8761) and 0.5 ml 10% MgCl.

Molecule	inhibition of activity by phosphate [1]	enzyme active (soybean phytase; 0.5 μM phosphate) [%]	Ki (soybean phytase; read-out: apparent Ki, product inhibition by phosphate) [µM]	inhibition of activity by phosphate [2]	isoelectric focusing, double band at pH [3] [pH]
phosphate	inhibited	67	18	not inhibited at all	–
B1	–	–	–	–	7.4

Source: patent US7186817B2, “Polynucleotides encoding phytase polypeptides” (Forskningscenter Riso, priority 2000, dated 2007)
